# Experimental data published in PubChem BioAssay AID179 (DTP/NCI, 2004).
# “And” between values parts separate entries of the source, which are not always exact repeats. Identical values can stand only once. The source made the active and inactive calls.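 The calls were made as follows: active = compounds giving half or more protection of infected cells from virus-caused growth loss, again on retest; inactive = the rest.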
# System: CEM cells HIV-1 protection, formazan growth assay
# Assay: NCI AIDS Antiviral Assay
# Details: for IC50: measured here: growth of uninfected CEM cells
# In short: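 Soluble formazan readout of cell growth; CEM cells ± HIV-1; 5 drug concs. ≥50% protection → retest; ≥50% again = moderately active; reproducible 100% = confirmed active.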
SMILES,EC50,IC50,outcome
CS(=O)(=O)OC[C@@H]1OCO[C@H]1COS(C)(=O)=O,> 200 µM,> 200 µM,
COc1ccc(-c2c(C#N)c(-c3ccccc3)n(NS(=O)(=O)c3ccccc3)c(=O)c2C#N)cc1,> 200 µM,44.7 µM,
c1csc(C(NC2=NCCO2)C2CC2)c1 (configuration not stated),> 200 µM,166 µM,
Nc1ccc2cc3ccc(N)cc3nc2c1,> 200 µM,1.12 µM and 0.692 µM,
O=c1/c(=C/c2cccc([N+](=O)[O-])c2)sc2nc3ccccc3n12,,,inactive
COC(=O)c1cc2ccccc2c2nc3ccccc3c(Cl)c12,> 8.13 µM,> 8.13 µM,
N#CCCN(CCC#N)c1ccc(/C=C(/NC(=O)Nc2ccccc2Cl)NC(=O)c2cc([N+](=O)[O-])ccc2Cl)cc1,> 12.3 µM,1.91 µM,
Cc1cc(O)c(C(C)C)cc1NC(=O)Nc1cccc2ccccc12,> 56.2 µM,40.7 µM,
O=CC1=CCCN(CCc2c[nH]c3ccccc23)C1,> 195 µM,10.2 µM,
N#CC(NNC(=O)c1ccccc1O)c1ccccc1 (configuration not stated),> 9.33 µM,0.339 µM,
CN(C)c1ccc(/C=C(\NC(=O)c2ccccc2)c2nc3ccc4c(c3[nH]2)C(=O)c2ccccc2C4=O)cc1,,,inactive
C1=CC(=[N+]2N=C(c3ccccc3)CC2c2ccccc2)C=CC1=C1SC(c2ccccc2)(c2ccccc2)c2ccccc21 (configuration not stated),> 200 µM,> 200 µM,
CCOC(=O)Cn1c2ccccc2c(=O)c2cc(C)c(C)c(C#N)c21,> 21.4 µM,> 21.4 µM,
Nc1ccc(SSc2ccc(Nc3ccnc4cc(Cl)ccc34)cc2)cc1,> 200 µM,5.01 µM,
CN(C)Cc1[nH]c(=O)[nH]c(=O)c1O,> 200 µM,23.4 µM,
CC(=NNC(=S)Nc1ccccc1C)c1cccc(C(C)=NNC(=S)Nc2ccccc2C)n1,> 200 µM,110 µM,
COC(=O)/C=C\COCC1C2CCC(=O)C21 (configuration not stated),> 50.1 µM,28.2 µM,
Cc1cc(=O)c2c([nH]1)c1c(c3[nH]c(C)cc(=O)c32)Oc2ccccc2O1,> 129 µM,93.3 µM,
COc1ccc(-c2cc(C(=O)Nc3cccc(C(F)(F)F)c3)[nH]c(=S)n2)cc1,> 162 µM,> 162 µM,
COC(CCC(C)C1OC23CC(OC(=O)CC(C(C)O)OC(=O)CC(O)(O2)C(C)CC3(C)C)C1C)c1cccc(O)c1 (configuration not stated),,,active
O=[N+]([O-])C1(C[Se]c2cccc(C(F)(F)F)c2)CCCCC1,,,inactive
O=C(CCC(=O)N/N=C/c1ccccc1O)N/N=C/c1ccccc1O,,,inactive

SMILES,EC50,IC50,outcome
OC1(CCc2ccccc2)COC(C(F)(F)F)(C(F)(F)F)C1 (configuration not stated),> 200 µM,> 200 µM,
Cn1c(N)cc[n+](C2CCC(CO)O2)c1=O (configuration not stated) (tested in a mixture with another compound),9.12 µM,708 µM,
CCOC(=O)c1cc2sc(NC(=O)c3cccs3)nc2o1,,,inactive
COc1c(O)ccc2oc3cc(O)cc(O)c3c(=O)c12,> 200 µM,145 µM,
CCOC(=O)c1nc2ccccc2nc1Oc1cc(OC)c(OC)c(OC)c1,> 100 µM,> 100 µM,
CC(=O)O[C@H]1[C@H](OC(=O)CC(C)(O)CC(=O)O)C[C@]2(C)C3=C(CCC2C1(C)C)[C@]1(C)CC[C@H]([C@H]2CC[C@H](C(C)(C)O)OC2O)[C@@]1(C)[C@@H](O)C3 (some centres not stated),> 100 µM,49 µM,
CCSCCCCCCCCCCCC(=O)OCC1OC(n2cc(C)c(=O)[nH]c2=O)CC1F (configuration not stated),0.0158 µM,2 µM,
CC(CO)S(=O)(=O)O (configuration not stated),> 200 µM,> 200 µM,
c1ccc2c3c([nH]c2c1)[C@H]1C2CCCCN2CN1CC3 (some centres not stated),> 676 µM,214 µM,
COC(=O)c1c(/C(=N/Nc2ccc([N+](=O)[O-])cc2)[N+](=O)[O-])ssc1=N,> 200 µM,10 µM,
CC(C)NC(=O)OCc1c(COC(=O)NC(C)C)c(-c2ccc(Cl)c(Cl)c2)n2c1CS(=O)(=O)C2,> 200 µM,42.7 µM,
N#CC1CC12c1ccccc1C(=O)c1ccccc12 (configuration not stated),135 µM,145 µM,
COc1ccc2nc3c([N+](=O)[O-])ccc4c3c(c2c1)NCCN4CCO,> 200 µM,0.398 µM,
Oc1ccccc1C1C=C(c2ccccc2)NC(N2CCCCC2)=C1c1nc2ccccc2[nH]1 (configuration not stated),,,inactive
CCOC(=O)c1c(C(CC)C(=O)OC(C)C)cc2n(c1=O)Cc1c-2nc2ccccc2c1Cl (configuration not stated),> 10 µM,> 10 µM,
[N-]=[N+]=CC(=O)OCCCCl,> 200 µM,> 200 µM,
CCN(CC)CCC(=O)c1ccc(Cl)c(Cl)c1,> 5010 µM,> 5010 µM,
O=S(=O)(F)c1ccc(C[P+](c2ccccc2)(c2ccccc2)c2ccccc2)cc1Cl,> 200 µM,97.7 µM,
O/N=C1/C(=C/c2ccc(F)cc2)CCCC1C(NO)c1ccc(F)cc1 (configuration not stated),> 2.88 µM,> 2.88 µM,
COc1ccc2c(c1)[n+](=O)c(C(=O)CC(=O)C(=O)Nc1cccc(C)c1C)c(C)n2[O-],> 117 µM,> 117 µM,
Cc1cc(CC(O)(C(F)(F)F)C(F)(F)F)cc(CC(O)(C(F)(F)F)C(F)(F)F)n1,,,inactive
Cc1nn(C(=O)c2ccc(Cl)cc2)c2c1C(c1ccccc1O)SC(N)=N2 (configuration not stated),> 200 µM,107 µM,

SMILES,EC50,IC50,outcome
Cc1nc(N(C(C)C)C(C)C)c(C(C)C)o1,> 200 µM,> 200 µM,
CC(C)(CCCCC(C)(C)NC(=O)Nc1ccc(Cl)c(Cl)c1)NC(=O)Nc1ccc(Cl)c(Cl)c1,> 200 µM,8.91 µM,
CCOC(=O)C1=CCOc2cc(N(C)C)ccc21,> 200 µM,105 µM,
Cc1oc(-c2cccc(F)c2)nc1C(N)=O,> 200 µM,> 200 µM,
COc1cccc(C2SC(N)=Nc3c2c(C)nn3C(=O)Cc2ccccc2)c1 (configuration not stated),79.4 µM,129 µM,
N#Cc1c(N=C2CCCCC2)c(C(=O)Nc2ccccc2)n2c1CCCC2,> 50.1 µM,> 50.1 µM,
O=C1CCC(N2C(=O)C3C(C2=O)C2(Cl)C(Cl)=C(Cl)C3(Cl)C2(Cl)Cl)C(=O)N1 (configuration not stated),> 200 µM,> 200 µM,
Cc1oc(N)c(C#N)c1C,,,inactive
COc1nc(N)c(NC2OC(CO)C(O)C(O)C2O)c(=O)n1C (configuration not stated),,,inactive
Cc1ccc(NC(=O)CC/C(CC(=O)C(C)(C)C)=N\Nc2ccc([N+](=O)[O-])cc2[N+](=O)[O-])cc1C,> 14.8 µM,> 14.8 µM,
O=C(O)[C@@H]1CSC(c2ccccc2F)N1 (some centres not stated),> 200 µM,> 200 µM,
CN(C)CCCSCCOc1nccc(-c2ccc(-c3ccc(-c4ccnc(OCCSCCCN(C)C)n4)s3)s2)n1,1.1 µM,2.75 µM,
O=C1CS(=O)(=O)C(c2ccccc2Cl)N1N1C(=O)CS(=O)(=O)C1c1ccccc1Cl (configuration not stated),> 200 µM,46.8 µM,
O=S(=O)(O)CN(CS(=O)(=O)O)c1nc(N(CS(=O)(=O)O)CS(=O)(=O)O)nc(N(CS(=O)(=O)O)CS(=O)(=O)O)n1,> 100 µM,15.5 µM,
CCOc1ccc(/C(O)=C/c2nc3ccccc3nc2/C=C(\O)c2ccc(OCC)cc2)cc1,> 100 µM,> 100 µM,
Cc1nn(C(=O)CC(=O)Nc2ccccc2Cl)c(C)c1N=Nc1ccccc1Cl,,,inactive
CC(C)(C)CC1=CC(=C2C=C(CC(C)(C)C)C(=O)C(CC(C)(C)C)=C2)C=C(CC(C)(C)C)C1=O,> 15.5 µM,> 15.5 µM,
COC1OC(C)/C(=N/O)C2OC(C)(C)OC12 (configuration not stated),> 1070 µM,> 1070 µM,
Cn1c(=O)c2[nH]c(N=O)nc2n(C)c1=O,> 200 µM,> 200 µM,
COc1ccc2c(c1)OC[C@H]1c3cc(O)c(O)cc3O[C@@H]21,,,inactive
CC1(c2ccc(Cl)cc2)OC(=O)c2c1ccc1ccccc21 (configuration not stated),,,inactive
[O]=[Sb][c]1ccc(Br)cc1,> 200 µM,4.57 µM,

SMILES,EC50,IC50,outcome
CN(C)CCCNC(=O)c1cc(NC(=O)c2cc(NC(=O)[C@H]3C[C@@H]3C(=O)Nc3cc(C(=O)Nc4cc(C(=O)NCCCN(C)C)n(C)c4)n(C)c3)cn2C)cn1C,,,inactive
NC1=NN(c2ccccc2)C(=O)C1/C(=N\NC(=O)c1cc2ccccc2cc1O)C(=O)Nc1nc([N+](=O)[O-])cs1 (configuration not stated),> 12.9 µM,> 12.9 µM,
O=C1Cc2c(-c3cccs3)cc(-c3ccccc3)nc2-c2ccccc2N1,> 200 µM,46.8 µM,
COC(=O)c1cc(=O)[nH]c2c1c(=O)n(C)c(=O)n2C,> 200 µM,> 200 µM,
CC12c3c4cccc3Oc3cc(N)cc(c31)Oc1cc(N)cc(c12)O4,> 200 µM,2.88 µM,
C(CCCCc1nnc(N2CCCCC2)o1)CCCc1nnc(N2CCCCC2)o1,> 200 µM,> 200 µM,
CSc1nc2c(c(=O)[nH]1)N=C(c1ccc(Cl)cc1)CC(c1ccccc1)N2 (configuration not stated),> 200 µM,33.1 µM,
CC(C)c1ccccc1NC(=O)C(=O)Cc1nc2ccccc2s1,,,inactive
COC1Nc2nc3ccccc3nc2NC1OC (configuration not stated),> 363 µM,66.1 µM,
CC(=O)OC(Cc1c(O)c2c(C)cccc2oc1=O)C(C)(C)O (configuration not stated),> 200 µM,91.2 µM,
CCN(CC)CCOc1ccc(/C(C#N)=C/c2ccc3ccccc3c2)cc1,> 100 µM,0.933 µM,
COc1cc(/C=C/c2nc(N)nnc2C)cc(OC)c1OC,> 200 µM,2.82 µM,
Clc1cccc2[nH]ncc12,> 200 µM,> 100 µM,
O=C1CCN2C(=O)CCN12,> 1780 µM,> 1780 µM,
O=C1NC2CCCCCC2C12CCCCC2 (configuration not stated),,,inactive
CCCCCCCCCCCCCCCCCc1nc(C#N)c(N)o1,> 200 µM,25.1 µM,
CCCCN(CCCC)CCCOC(=O)c1ccc2oc3ccc(C(=O)OCCCN(CCCC)CCCC)cc3c2c1,> 38.9 µM,10.5 µM,
COc1nc2ncc([C@@H](O)[C@H](O)CO)nc2c(=O)n1C,> 200 µM,> 200 µM,
CNCCCNCCCSP(=O)(O)O,> 195 µM,191 µM,
COC(=O)c1cc(C)ccc1C1CN=NC12Cc1c(C)cc(C)cc1C2=O (configuration not stated),> 200 µM,29.5 µM,
CN(C)c1c([O-])c(=[N+](C)C)c1=O,,,inactive
